From US20100048597A1 (Novartis AG, priority 2006, published 2010)
Like-named read-outs stand apart in the source and are kept apart here.

Tests used:
Format in all cases: biochemical
CDK9/cyclinT1 = biological target: T1, CDK9/cyclinT1 (Homo sapiens, UniProt P50750); assay: CDK9/cyclinT1 kinase assay, IMAP fluorescence polarization
T1 construct: purchased Millipore
Procedure: (§1) Kinase assays were performed on recombinant purified enzymes using the non-radioactive IMAP fluorescence polarization assay format.
(§2) Compound stocks were prepared and diluted in DMSO and were added to kinase reactions at a 1/100 dilution for a final concentration of 1% DMSO. The components were added together to final concentrations listed in the tables below and incubated for two hours at room temperature.
(§3) The reactions were stopped by addition of stop solution.
CDK9/CDK1/CDK7: final stop concentration is 1× Developer buffer (85% A/15% B), IMAP beads 1/400
(§4) The samples were allowed to incubate for one more hour at room temperature and then the fluorescence polarization was measured. The plate normalized millipolarization (mP) values were plotted against the log of compound concentration for each compound and IC50 values were calculated using the spotfire IC50 calculator and confirmed by visual analysis.

CDK1/cyclinB = biological target: T2, CDK1/cyclinB (Homo sapiens, UniProt P06493); assay: CDK1/cyclinB kinase assay, IMAP fluorescence polarization
T2 construct: purchased Millipore
T2 sequence (P06493 whole entry): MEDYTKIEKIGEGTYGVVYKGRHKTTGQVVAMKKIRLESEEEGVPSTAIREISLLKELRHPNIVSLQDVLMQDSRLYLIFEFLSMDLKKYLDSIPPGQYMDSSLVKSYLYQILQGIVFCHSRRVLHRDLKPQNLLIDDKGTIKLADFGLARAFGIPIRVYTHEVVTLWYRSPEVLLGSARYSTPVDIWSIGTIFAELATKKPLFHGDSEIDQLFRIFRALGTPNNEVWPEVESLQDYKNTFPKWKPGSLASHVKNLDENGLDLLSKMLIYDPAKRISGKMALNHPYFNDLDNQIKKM
T2 sequence (P14635 whole entry partner): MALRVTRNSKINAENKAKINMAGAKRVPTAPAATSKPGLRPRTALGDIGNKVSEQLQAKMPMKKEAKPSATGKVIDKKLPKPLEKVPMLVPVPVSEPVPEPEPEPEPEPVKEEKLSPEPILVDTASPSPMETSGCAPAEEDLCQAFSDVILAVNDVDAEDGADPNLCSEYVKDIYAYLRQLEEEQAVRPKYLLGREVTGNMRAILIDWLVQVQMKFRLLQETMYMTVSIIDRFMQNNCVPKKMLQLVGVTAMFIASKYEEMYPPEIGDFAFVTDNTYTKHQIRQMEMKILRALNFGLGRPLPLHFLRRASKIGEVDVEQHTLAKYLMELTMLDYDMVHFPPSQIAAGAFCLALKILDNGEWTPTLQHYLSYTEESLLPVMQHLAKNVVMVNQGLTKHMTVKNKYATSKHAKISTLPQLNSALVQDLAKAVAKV
Procedure: as §1, §2, §3
The samples were allowed to incubate for one more hour at room temperature and then the fluorescence polarization was measured.

CDK2/cyclinA = biological target: T3, CDK2/cyclinA (Homo sapiens, UniProt P24941); assay: CDK2/cyclinA kinase assay, IMAP fluorescence polarization
T3 construct: purchased Millipore
Procedure: as §1, §2, §3
CDK2: final stop concentration is 1× Developer buffer (100% A), IMAP beads 1/400
as §4

T1 sequence (P50750 whole entry): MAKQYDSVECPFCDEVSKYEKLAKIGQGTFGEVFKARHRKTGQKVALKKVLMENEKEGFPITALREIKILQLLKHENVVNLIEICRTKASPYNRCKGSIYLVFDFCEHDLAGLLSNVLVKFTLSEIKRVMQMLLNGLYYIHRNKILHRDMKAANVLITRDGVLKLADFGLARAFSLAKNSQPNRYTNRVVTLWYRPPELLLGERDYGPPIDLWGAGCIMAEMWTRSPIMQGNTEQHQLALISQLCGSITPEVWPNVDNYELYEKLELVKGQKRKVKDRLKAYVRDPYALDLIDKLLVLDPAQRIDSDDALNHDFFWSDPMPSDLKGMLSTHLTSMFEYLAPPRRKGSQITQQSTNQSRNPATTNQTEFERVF
T1 sequence (O60563 whole entry partner): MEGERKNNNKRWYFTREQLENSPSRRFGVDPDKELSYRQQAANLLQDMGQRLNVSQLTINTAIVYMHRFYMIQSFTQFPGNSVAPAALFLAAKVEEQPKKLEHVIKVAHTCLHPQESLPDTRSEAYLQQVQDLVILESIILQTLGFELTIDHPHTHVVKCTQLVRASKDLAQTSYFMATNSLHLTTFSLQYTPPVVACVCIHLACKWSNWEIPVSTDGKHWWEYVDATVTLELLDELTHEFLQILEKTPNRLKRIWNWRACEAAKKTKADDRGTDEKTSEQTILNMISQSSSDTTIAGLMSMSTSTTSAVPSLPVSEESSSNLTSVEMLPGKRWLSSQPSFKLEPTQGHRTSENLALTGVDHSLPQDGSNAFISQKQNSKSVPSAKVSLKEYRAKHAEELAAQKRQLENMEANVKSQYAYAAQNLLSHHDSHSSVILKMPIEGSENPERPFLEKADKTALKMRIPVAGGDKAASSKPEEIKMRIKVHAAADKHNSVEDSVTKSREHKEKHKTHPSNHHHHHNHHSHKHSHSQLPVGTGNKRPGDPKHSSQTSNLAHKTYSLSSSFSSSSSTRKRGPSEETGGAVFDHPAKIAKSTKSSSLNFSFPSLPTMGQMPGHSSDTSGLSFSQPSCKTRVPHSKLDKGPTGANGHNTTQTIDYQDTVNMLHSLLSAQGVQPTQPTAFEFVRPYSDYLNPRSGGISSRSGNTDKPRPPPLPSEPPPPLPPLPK

With `CC(=O)NCCCNc1ncccc1-c1nc(Nc2cccc(Cl)c2)ncc1C` [Compound 66, N-(3-{3-[2-(3-Chloro-phenylamino)-5-methyl-pyrimidin-4-yl]-pyridin-2-ylamino}-propyl)-acetamide] the IC50 (CDK9/cyclinT1) was < 5 µM, the IC50 (CDK1/cyclinB; read-out: CDK1 IC50) was > 50 µM and the IC50 (CDK2/cyclinA) was 15 to 50 µM.
With `COCCCNc1nccc(-c2ccnc(Nc3cccc(Cl)c3)n2)c1C` [Compound 18, (3-Chloro-phenyl)-{4-[2-(3-methoxy-propylamino)-3-methyl-pyridin-4-yl]-pyrimidin-2-yl}-amine] the IC50 (CDK9/cyclinT1) was < 5 µM, the IC50 (CDK1/cyclinB; read-out: CDK1 IC50) was < 5 µM and the IC50 (CDK2/cyclinA) was < 5 µM.
For `COc1ncccc1-c1ccnc(Nc2cccc(C(=O)NCCN(C)C)c2)n1` [Compound 97, N-(2-Dimethylamino-ethyl)-3-[4-(2-methoxy-pyridin-3-yl)-pyrimidin-2-ylamino]-benzamide], the IC50 (CDK9/cyclinT1) was < 5 µM, the IC50 (CDK1/cyclinB; read-out: CDK1 IC50) was 5 to 15 µM and the IC50 (CDK2/cyclinA) was 5 to 15 µM.
For `CCNC(=O)c1cccc(Nc2nccc(-c3cccnc3OC)n2)c1` [Compound 96, N-Ethyl-3-[4-(2-methoxy-pyridin-3-yl)-pyrimidin-2-ylamino]-benzamide], the IC50 (CDK9/cyclinT1) was < 5 µM, the IC50 (CDK1/cyclinB; read-out: CDK1 IC50) was < 5 µM and the IC50 (CDK2/cyclinA) was < 5 µM.
`COc1ncccc1-c1ccnc(Nc2cccc(N3CCCC3)c2)n1` [Compound 106, [4-(2-Methoxy-pyridin-3-yl)-pyrimidin-2-yl]-(3-pyrrolidin-1-yl-phenyl)-amine] was tested, and the IC50 (CDK9/cyclinT1) was < 5 µM, the IC50 (CDK1/cyclinB; read-out: CDK1 IC50) was 5 to 15 µM and the IC50 (CDK2/cyclinA) was 15 to 50 µM.
With `COc1ncccc1-c1ccnc(Nc2cccc(-c3ccccc3)c2)n1` [Compound 115, Biphenyl-3-yl-[4-(2-methoxy-pyridin-3-yl)-pyrimidin-2-yl]-amine] the IC50 (CDK9/cyclinT1) was < 5 µM, the IC50 (CDK1/cyclinB; read-out: CDK1 IC50) was > 50 µM and the IC50 (CDK2/cyclinA) was > 50 µM.
With `Clc1cccc(Nc2nccc(-c3cccnc3NCC3CCCCC3)n2)c1` [Compound 50, (3-Chloro-phenyl)-{4-[2-(cyclohexylmethyl-amino)-pyridin-3-yl]-pyrimidin-2-yl}-amine] the IC50 (CDK9/cyclinT1) was > 50 µM, the IC50 (CDK1/cyclinB; read-out: CDK1 IC50) was > 50 µM and the IC50 (CDK2/cyclinA) was > 50 µM.
With `Nc1cnccc1-c1ccnc(Nc2cccc(Cl)c2)n1` [Compound 1, [4-(3-Amino-pyridin-4-yl)-pyrimidin-2-yl]-(3-chloro-phenyl)-amine] the IC50 (CDK9/cyclinT1) was < 5 µM, the IC50 (CDK1/cyclinB; read-out: CDK1 IC50) was < 5 µM and the IC50 (CDK2/cyclinA) was < 5 µM.
`CNS(=O)(=O)c1cccc(Nc2nccc(-c3cccnc3OC)n2)c1` [Compound 100, 3-[4-(2-Methoxy-pyridin-3-yl)-pyrimidin-2-ylamino]-N-methyl-benzenesulfonamide] was tested, and the IC50 (CDK9/cyclinT1) was < 5 µM, the IC50 (CDK1/cyclinB; read-out: CDK1 IC50) was < 5 µM and the IC50 (CDK2/cyclinA) was < 5 µM.
`Clc1cccc(Nc2nccc(-c3cccnc3NCCCN3CCOCC3)n2)c1` [Compound 78, (3-Chloro-phenyl)-{4-[2-(3-morpholin-4-yl-propylamino)-pyridin-3-yl]-pyrimidin-2-yl}-amine] was tested, and the IC50 (CDK9/cyclinT1) was < 5 µM, the IC50 (CDK1/cyclinB; read-out: CDK1 IC50) was 5 to 15 µM and the IC50 (CDK2/cyclinA) was < 5 µM.
With `CC(=O)OCCCNc1ncccc1-c1ccnc(Nc2cccc(Cl)c2)n1` [Compound 76, Acetic acid 3-{3-[2-(3-chloro-phenylamino)-pyrimidin-4-yl]-pyridin-2-ylamino}-propyl ester] the IC50 (CDK9/cyclinT1) was < 5 µM, the IC50 (CDK1/cyclinB; read-out: CDK1 IC50) was 5 to 15 µM and the IC50 (CDK2/cyclinA) was < 5 µM.
In the case of `COc1ncccc1-c1ccnc(Nc2ccncc2)n1` [Compound 89], the IC50 (CDK9/cyclinT1) is reported as > 50 µM, the IC50 (CDK1/cyclinB; read-out: CDK1 IC50) is reported as > 50 µM and the IC50 (CDK2/cyclinA) is reported as > 50 µM.
`COc1ncccc1-c1ccnc(Nc2cccc(-c3nncn3C)c2)n1` [Compound 111, [4-(2-Methoxy-pyridin-3-yl)-pyrimidin-2-yl]-[3-(4-methyl-4H-[1,2,4]triazo1-3-yl)-phenyl]-amine] was tested, and the IC50 (CDK9/cyclinT1) was < 5 µM, the IC50 (CDK1/cyclinB; read-out: CDK1 IC50) was 5 to 15 µM and the IC50 (CDK2/cyclinA) was < 5 µM.
With `Cc1cnc(Nc2cccc(Cl)c2)nc1-c1cccnc1NCCCn1ccnc1C` [Compound 82, (3-Chloro-phenyl)-(5-methyl-4-{2-[3-(2-methyl-imidazol-1-yl)-propylamino]-pyridin-3-yl}-pyrimidin-2-yl)-amine] the IC50 (CDK9/cyclinT1) was < 5 µM, the IC50 (CDK1/cyclinB) was 5 to 15 µM and the IC50 (CDK2/cyclinA) was 15 to 50 µM.
`COc1ncccc1-c1ccnc(Nc2ccc([N+](=O)[O-])cc2)n1` [Compound 116, [4-(2-Methoxy-pyridin-3-yl)-pyrimidin-2-yl]-(4-nitro-phenyl)-amine] was tested, and the IC50 (CDK9/cyclinT1) was > 50 µM, the IC50 (CDK1/cyclinB; read-out: CDK1 IC50) was > 50 µM and the IC50 (CDK2/cyclinA) was > 50 µM.
`COc1ncccc1-c1ccnc(Nc2cccc(C(=O)OC(C)(C)C)c2)n1` [Compound 109, 3-[4-(2-Methoxy-pyridin-3-yl)-pyrimidin-2-ylamino]-benzoic acid tert-butyl ester] was tested, and the IC50 (CDK9/cyclinT1) was < 5 µM, the IC50 (CDK1/cyclinB; read-out: CDK1 IC50) was > 50 µM and the IC50 (CDK2/cyclinA) was < 5 µM.
With `COc1ncccc1-c1ccnc(Nc2cccc(C(=O)O)c2)n1` [Compound 94, 3-[4-(2-Methoxy-pyridin-3-yl)-pyrimidin-2-ylamino]-benzoic acid] the IC50 (CDK9/cyclinT1) was 15 to 50 µM, the IC50 (CDK1/cyclinB; read-out: CDK1 IC50) was 15 to 50 µM and the IC50 (CDK2/cyclinA) was < 5 µM.
With `Cc1nccn1CCCNc1ncccc1-c1ccnc(Nc2cccc(Cl)c2)n1` [Compound 81, (3-Chloro-phenyl)-(4-{2-[3-(2-methyl-imidazol-1-yl)-propylamino]-pyridin-3-yl}-pyrimidin-2-yl)-amine] the IC50 (CDK9/cyclinT1) was < 5 µM, the IC50 (CDK1/cyclinB; read-out: CDK1 IC50) was < 5 µM and the IC50 (CDK2/cyclinA) was < 5 µM.
In the case of `CC(=O)NCCNc1ncccc1-c1ccnc(Nc2cccc(Cl)c2)n1` [Compound 54, N-(2-{3-[2-(3-Chloro-phenylamino)-pyrimidin-4-yl]-pyridin-2-ylamino}-ethyl)-acetamide], the IC50 (CDK9/cyclinT1) is reported as < 5 µM, the IC50 (CDK1/cyclinB; read-out: CDK1 IC50) is reported as < 5 µM and the IC50 (CDK2/cyclinA) is reported as < 5 µM.
`COc1ncccc1-c1ccnc(Nc2cccnc2)n1` [Compound 90, [4-(2-Methoxy-pyridin-3-yl)-pyrimidin-2-yl]-pyridin-3-yl-amine] was tested, and the IC50 (CDK9/cyclinT1) was > 50 µM, the IC50 (CDK1/cyclinB; read-out: CDK1 IC50) was > 50 µM and the IC50 (CDK2/cyclinA) was > 50 µM.
In the case of `CC(C)(C)CC(=O)NCCCNc1ncccc1-c1ccnc(Nc2cccc(Cl)c2)n1` [Compound 71, N-(3-{3-[2-(3-Chloro-phenylamino)-pyrimidin-4-yl]-pyridin-2-ylamino}-propyl)-3,3-dimethyl-butyramide], the IC50 (CDK9/cyclinT1) is reported as < 5 µM, the IC50 (CDK1/cyclinB; read-out: CDK1 IC50) is reported as 5 to 15 µM and the IC50 (CDK2/cyclinA) is reported as > 50 µM.
`COc1ncccc1-c1ccnc(Nc2cccc(S(=O)(=O)NC3CCCCC3)c2)n1` [Compound 104, N-Cyclohexyl-3-[4-(2-methoxy-pyridin-3-yl)-pyrimidin-2-ylamino]-benzenesulfonamide] was tested, and the IC50 (CDK9/cyclinT1) was > 50 µM, the IC50 (CDK1/cyclinB; read-out: CDK1 IC50) was > 50 µM and the IC50 (CDK2/cyclinA) was > 50 µM.
`COc1ncccc1-c1ccnc(Nc2cccc(C(N)=O)c2)n1` [Compound 95, 3-[4-(2-Methoxy-pyridin-3-yl)-pyrimidin-2-ylamino]-benzamide] was tested, and the IC50 (CDK9/cyclinT1) was < 5 µM, the IC50 (CDK1/cyclinB; read-out: CDK1 IC50) was < 5 µM and the IC50 (CDK2/cyclinA) was < 5 µM.
In the case of `Cc1cnc(Nc2cccc(Cl)c2)nc1-c1cccnc1NCCCN` [Compound 56, N-{3-[2-(3-Chloro-phenylamino)-5-methyl-pyrimidin-4-yl]-pyridin-2-yl}-propane-1,3-diamine], the IC50 (CDK9/cyclinT1) is reported as < 5 µM, the IC50 (CDK1/cyclinB; read-out: CDK1 IC50) is reported as < 5 µM and the IC50 (CDK2/cyclinA) is reported as < 5 µM.
With `COc1ncccc1-c1ccnc(Nc2cccc(NC(C)=O)c2)n1` [Compound 98, N-{3-[4-(2-Methoxy-pyridin-3-yl)-pyrimidin-2-ylamino]-phenyl}-acetamide] the IC50 (CDK9/cyclinT1) was < 5 µM, the IC50 (CDK1/cyclinB; read-out: CDK1 IC50) was < 5 µM and the IC50 (CDK2/cyclinA) was < 5 µM.
`CCCCNc1ncccc1-c1nc(Nc2cccc(Cl)c2)ncc1C` [Compound 57, [4-(2-Butylamino-pyridin-3-yl)-5-methyl-pyrimidin-2-yl]-(3-chloro-phenyl)-amine] was tested, and the IC50 (CDK9/cyclinT1) was < 5 µM, the IC50 (CDK1/cyclinB; read-out: CDK1 IC50) was > 50 µM and the IC50 (CDK2/cyclinA) was > 50 µM.
For `CCOC(=O)c1cccc(Nc2nccc(-c3cccnc3OC)n2)c1` [Compound 108, 3-[4-(2-Methoxy-pyridin-3-yl)-pyrimidin-2-ylamino]-benzoic acid ethyl ester], the IC50 (CDK9/cyclinT1) was < 5 µM, the IC50 (CDK1/cyclinB; read-out: CDK1 IC50) was < 5 µM and the IC50 (CDK2/cyclinA) was < 5 µM.
In the case of `CNCCCNc1ncccc1-c1ccnc(Nc2cccc(Cl)c2)n1` [Compound 62, N-{3-[2-(3-Chloro-phenylamino)-pyrimidin-4-yl]-pyridin-2-yl}-N′-methyl-propane-1,3-diamine], the IC50 (CDK9/cyclinT1) is reported as < 5 µM, the IC50 (CDK1/cyclinB; read-out: CDK1 IC50) is reported as 5 to 15 µM and the IC50 (CDK2/cyclinA) is reported as 5 to 15 µM.
In the case of `CN(C)CCNc1ncccc1-c1ccnc(Nc2cccc(Cl)c2)n1` [Compound 53, N-{3-[2-(3-Chloro-phenylamino)-pyrimidin-4-yl]-pyridin-2-yl}-N′,N′-dimethyl-ethane-1,2-diamine], the IC50 (CDK9/cyclinT1) is reported as < 5 µM, the IC50 (CDK1/cyclinB; read-out: CDK1 IC50) is reported as 15 to 50 µM and the IC50 (CDK2/cyclinA) is reported as 5 to 15 µM.
With `COc1ncccc1-c1ccnc(Nc2cccc(C3CCNCC3)c2)n1` [Compound 113, [4-(2-Methoxy-pyridin-3-yl)-pyrimidin-2-yl]-(3-piperidin-4-yl-phenyl)-amine] the IC50 (CDK9/cyclinT1) was < 5 µM, the IC50 (CDK1/cyclinB; read-out: CDK1 IC50) was < 5 µM and the IC50 (CDK2/cyclinA) was < 5 µM.
With `COc1ncccc1-c1ccnc(Nc2cccc(C3CCN(C(=O)OC(C)(C)C)CC3)c2)n1` [Compound 114, 4-{3-[4-(2-Methoxy-pyridin-3-yl)-pyrimidin-2-ylamino]-phenyl}-piperidine-1-carboxylic acid tert-butyl ester] the IC50 (CDK9/cyclinT1) was > 50 µM, the IC50 (CDK1/cyclinB; read-out: CDK1 IC50) was > 50 µM and the IC50 (CDK2/cyclinA) was > 50 µM.
For `COc1ncccc1-c1ccnc(Nc2cccc([N+](=O)[O-])c2)n1` [Compound 92, [4-(2-Methoxy-pyridin-3-yl)-pyrimidin-2-yl]-(3-nitro-phenyl)-amine], the IC50 (CDK9/cyclinT1) was < 5 µM, the IC50 (CDK1/cyclinB; read-out: CDK1 IC50) was > 50 µM and the IC50 (CDK2/cyclinA) was > 50 µM.
`COc1ncccc1-c1ccnc(Nc2cccc(S(=O)(=O)NCCO)c2)n1` [Compound 103, N-(2-Hydroxy-ethyl)-3-[4-(2-methoxy-pyridin-3-yl)-pyrimidin-2-ylamino]-benzenesulfonamide] was tested, and the IC50 (CDK9/cyclinT1) was < 5 µM, the IC50 (CDK1/cyclinB; read-out: CDK1 IC50) was < 5 µM and the IC50 (CDK2/cyclinA) was < 5 µM.
